Assays:
[1] = HNO production via N2O quantification (GC headspace analysis); format: physicochemical; settings: 37° C. under argon, N2O relative to Angeli's salt; for % N2O DI: compound incubated in DI water; for % N2O pH 7.4: compound incubated in PBS buffer; for % N2O pH 10.3: compound incubated in pH 10.3 carbonate buffer
Experimental: (§1) Nitrous oxide is produced via the dimerization and dehydration of HNO, and is the most common marker for HNO production (Fukuto, J. M. et al., Chem. Res. Toxicol. 2005, 18, 790-801).
(§2) The ability of compounds to donate HNO is assessed. N2O results are reported relative to Angeli's salt. All decompositions are carried out at 37° C. under argon.

[2] = Decomposition of compound in PBS buffer, pH 7.4 determined by HPLC; format: physicochemical; settings: 37° C. under argon; for half-life: read-out: approximate half-life (in parentheses in Decomp. Time column)
Experimental: as §2

esterase = assay: HNO production via N2O quantification in PBS buffer, pH 7.4 with added esterase; format: in vitro ADME; settings: pH 7.4 with 2-4 mg added esterase, 37° C. under argon, N2O relative to Angeli's salt
Experimental: as §1, §2

| Decomp. Time (time required for complete decomposition) [2] [h] | half-life [2] [min] | % N2O esterase (esterase) [%] | Structure (SMILES) | % N2O DI [1] [%] | % N2O pH 7.4 [1] [%] | % N2O pH 10.3 [1] [%] |
| --- | --- | --- | --- | --- | --- | --- |
| <3 |  |  | O=C(ON(Cl)C(=O)c1ccccc1)c1ccccc1 [Compound 1, N-chloro-N-benzoyloxy-benzamide] | 29 | 1 |  |
| <3 |  |  | O=C(ON(Cl)C(=O)c1ccc(Cl)cc1)c1ccc(Cl)cc1 [Compound 2, N-chloro-N-(4-chlorobenzoyloxy)-4-chlorobenzamide] | 32 | 1 |  |
| <3 |  |  | O=C(ON(Cl)C(=O)c1ccccc1)C(Cl)Cl [Compound 7, N-chloro-N-dichloroacetyloxy- benzamide] |  | 7 |  |
| <3 |  |  | CC(=O)ON(Cl)C(C)=O [Compound 9, N-chloro-N-acetyloxy-acetamide] | 80 | 15 |  |
| <3 |  |  | CC(=O)ON(Cl)C(=O)OC(C)(C)C [Compound 10, N-chloro-N-acetyloxy-tert-butyl- carbamate] | 98 | 39 |  |
| <3 |  |  | CCOC(=O)ON(Cl)C(=O)OCC [Compound 11, N-chloro-ethyl-carbonoxy-ethyl- carbamate] | 31 | 12 |  |
| <3 |  |  | CC(C)(C)C(=O)ON(Cl)C(=O)C(C)(C)C [Compound 12, N-chloro-N-(trimethylacetyloxy)- trimethylacetamide] | 37 | 1 |  |
| <3 |  |  | CC(C)(C)OC(=O)N(Cl)OC(=O)c1ccc([N+](=O)[O-])cc1 [Compound 13] | 9 |  |  |
| <3 |  |  | CC(=O)ON(Cl)C(=O)C(C)(C)C [Compound 14, N-chloro-N-(acetyloxy)- trimethylacetamide] | 48 | 6 |  |
| <3 |  |  | CC(=O)ON(Br)C(C)=O [Compound 15, N-bromo-N-acetyloxy-acetamide] |  | 7 |  |
| <3 |  |  | CC(=O)ON(C(C)=O)S(=O)(=O)c1ccc(Cl)cc1 [Compound 18, N-(4-chlorobenzenesulfonyl)-N-acetyloxy-acetamide] |  | 4 |  |
| < 2 | ~20 |  | CC(=O)ON(C(C)=O)S(=O)(=O)c1ccccc1Br [Compound 19, N-(2-bromobenzenesulfonyl)-N-acetyloxy-acetamide] |  | 35 |  |
| <3 |  |  | CC(=O)ON(C(C)=O)S(=O)(=O)c1ccccc1Cl [Compound 20, N-(2-chlorobenzenesulfonyl)-N-acetyloxy-acetamide] |  | 23 |  |
| <3 |  |  | CC(=O)ON(C(C)=O)S(=O)(=O)c1c(F)cc(F)cc1Br [Compound 21, N-(2-bromo-4,6-difluoro-benzenesulfonyl)-N-acetyloxy-acetamide] |  | 39 |  |
| < 2 | ~20 |  | CC(=O)ON(C(C)=O)S(=O)(=O)c1c(Br)cccc1Br [Compound 22, N-(2,6-dibromobenzenesulfonyl)-N-acetyloxy-acetamide] |  | 71 |  |
| < 3 | ~40 | 57 | CC(=O)ON(C(C)=O)S(=O)(=O)c1c(Cl)cccc1Cl [Compound 23, N-(2,6-dichlorobenzenesulfonyl)-N-acetyloxy-acetamide] |  | 56 | 56 |
| < 3 | ~30 |  | CC(=O)ON(C(C)=O)S(=O)(=O)c1c(F)cccc1F [Compound 24, N-(2,6-difluorobenzenesulfonyl)-N-acetyloxy-acetamide] |  | 23 |  |
| <3 |  |  | CC(=O)ON(C(C)=O)S(=O)(=O)c1ccccc1[N+](=O)[O-] [Compound 25, N-(2-nitrobenzenesulfonyl)-N-acetyloxy-acetamide] |  | 13 |  |
| <3 |  |  | CC(=O)ON(C(C)=O)S(=O)(=O)CCl [Compound 26, N-(chloromethylsulfonyl)-N- acetyloxy-acetamide] |  | 13 |  |
| <3 |  |  | CCOC(=O)N(OC(C)=O)S(=O)(=O)c1c(Cl)cccc1Cl [Compound 27] |  | 57 |  |
| <3 |  |  | CC(=O)ON(C(=O)c1ccccc1)S(=O)(=O)c1c(Cl)cccc1Cl [Compound 28, N-(2,6-dichlorobenzenesulfonyl)-N-acetyloxy-benzamide] |  | 17 | 44 |
| <3 |  | 83 | CC(=O)ON(C(=O)OCc1ccccc1)S(=O)(=O)c1c(Cl)cccc1Cl [Compound 29, N-(2,6-dichlorobenzenesulfonyl)-N-acetyloxy-benzyl-carbamate] |  | 21 | 52 |
| <3 |  |  | CC(=O)ON(C(=O)C(Cl)Cl)S(=O)(=O)c1c(Cl)cccc1Cl [Compound 30, N-(2,6-dichlorobenzenesulfonyl)-N-acetyloxy-dichloroacetamide] |  | 3 | 8 |
| <20 |  |  | CC(=O)ON(C(=O)C(C)(C)C)S(=O)(=O)c1cc(Cl)ccc1Cl [Compound 31, N-(2,5-dichlorobenzenesulfonyl)-N-acetyloxy-trimethylacetamide] |  | 5 |  |
| >20 |  |  | CC(=O)ON(C(=O)C(C)(C)C)S(=O)(=O)c1ccccc1[N+](=O)[O-] [Compound 32, N-(2-nitrobenzenesulfonyl)-N-acetyloxy-trimethylacetamide] |  | 0 |  |
| <20 |  |  | CC(=O)ON(C(=O)C(C)(C)C)S(=O)(=O)c1c(Cl)cccc1Cl [Compound 33, N-(2,6-dichlorobenzenesulfonyl)-N-acetyloxy-trimethylacetamide] |  | 1 | 33 |
| <2 |  | 67 | CC(=O)ON(C(=O)OC(C)(C)C)S(=O)(=O)c1ccccc1Br [Compound 36, N-(2-bromobenzenesulfonyl)-N-acetyloxy-tert-butyl-carbamate] |  | 7 |  |
| <3 |  | 85 | CC(=O)ON(C(=O)OC(C)(C)C)S(=O)(=O)c1c(Cl)cccc1Cl [Compound 37, N-(2,6-dichlorobenzenesulfonyl)-N-acetyloxy-tert-butyl-carbamate] |  | 4 |  |
| <3 |  | 73 | CC(=O)ON(C(=O)OC(C)(C)C)S(=O)(=O)c1c(Br)cccc1Br [Compound 38, N-(2,6-dibromobenzenesulfonyl)-N-acetyloxy-tert-butyl-carbamate] |  | 3 | 37 |
| <3 |  |  | CC(C)(C)OC(=O)N(OC(=O)c1ccc([N+](=O)[O-])cc1)S(=O)(=O)c1c(Cl)cccc1Cl [Compound 40] |  | 0 |  |

| Structure (SMILES) | Decomp. Time (time required for complete decomposition) [2] [h] | half-life [2] [min] | % N2O esterase (esterase) [%] | % N2O DI [1] [%] | % N2O pH 7.4 [1] [%] | % N2O pH 10.3 [1] [%] |
| --- | --- | --- | --- | --- | --- | --- |
| CC(=O)ON(Cl)C(=O)c1ccccc1 [Compound 6, N-chloro-N-acetoxy-benzamide] | <3 |  |  |  | 2 |  |
| O=C(c1ccccc1)N(Cl)OC(=O)C(F)(F)F [Compound 8, N-chloro-N-(2,2,2-trifluoroacetoxy)benzamide] | <3 |  |  |  | 2 |  |

— patent US9018411B2, “Bis-acylated hydroxylamine derivatives” (Cardioxyl Pharmaceuticals, Inc., priority 2009, dated 2015)
